Laboratory results published in US20230210999A1, “TARGETED PROTEASE DEGRADATION (TED) PLATFORM” (EUBULUS BIOTHERAPEUTICS INC., priority 2020, published 2023).

system: PC-3; assay: Cell proliferation experiment, PC-3; format: cell-based, human; details: Homo sapiens, PC-3, PC-3 cells; read-out: Inhibitory activity IC50 on PC-3
Experimental: Reagents: RPMI-1640 medium, McCoy's 5A medium, IMDM medium, MEM medium, L-15 medium, fetal bovine serum. Penicillin-Streptomycin double antibody, trypsin, etc., 2-mercaptoethanol, NEAA, pyruvate, etc.
The cells were cultured in conventional ways, and the cells should be passed at least 2 generations before plating. Cells at the logarithmic growth phase were collected, prepared into single cell suspensions and counted. The concentration of cells was adjusted to the desired concentration, and cells were inoculated into a 96-well cell culture plate at 100 μl per well. 100 μL of complete medium of the test compound were added to each well, set up 2 duplicate wells for each concentration, and diluted with a 5-fold gradient, and continued to culture for 72 h. All cells were subjected to IC50 test for corresponding samples. The experimental results are shown in Test Example 4.
The fluorescence intensity of each well was detected using the Alarm blue method, and IC50 was calculated.
IC50 was calculated according to the following formula:
Y=Max+(Min−Max)/[1+(X/IC50)×Slope]
wherein Min, Max and Slope represent the minimum, maximum and slope respectively.

SMILES | IC50 [µM]
O=C1CCC(N2Cc3cc(NC(=O)CCOCCOCCOCC(O)Cn4cc(-c5ccc(Nc6ncc7c(n6)-c6ccc(Cl)cc6C(c6c(F)cccc6F)=NC7)cc5)nn4)ccc3C2=O)C(=O)N1 (stereo not drawn) [UB-181075] | > 1
O=C1CCC(N2Cc3cc(NC(=O)CCOCCOCC(O)COCCn4cc(-c5ccc(Nc6ncc7c(n6)-c6ccc(Cl)cc6C(c6c(F)cccc6F)=NC7)cc5)nn4)ccc3C2=O)C(=O)N1 (stereo not drawn) [UB-181077] | > 1
CNC(=O)c1ccccc1Nc1nc(Nc2ccc(N3CCN(C(=O)NCCOCC(O)COCCOCCC(=O)Nc4cccc5c4CN(C4CCC(=O)NC4=O)C5=O)CC3)cc2)ncc1Cl (stereo not drawn) [UB-181079] | > 1
CNC(=O)c1ccccc1Nc1nc(Nc2ccc(N3CCN(C(=O)NCC(O)COCCOCCOCCC(=O)Nc4ccc5c(c4)CN(C4CCC(=O)NC4=O)C5=O)CC3)cc2)ncc1Cl (stereo not drawn) [UB-181081] | > 1
CNC(=O)c1ccccc1Nc1nc(Nc2ccc(N3CCN(C(=O)NCC(O)COCCOCCOCCC(=O)Nc4cccc5c4CN(C4CCC(=O)NC4=O)C5=O)CC3)cc2)ncc1Cl (stereo not drawn) [UB-181082] | > 1
CNC(=O)c1ccccc1Nc1nc(Nc2ccc(N3CCN(C(=O)NCCCOCC(=O)COCC#Cc4cccc5c4CN(C4CCC(=O)NC4=O)C5=O)CC3)cc2)ncc1Cl (stereo not drawn) [UB-181083] | > 1
CNC(=O)c1ccccc1Nc1nc(Nc2ccc(N3CCN(C(=O)N[C@H]4CC[C@@H](NCCCOCCC#Cc5ccc6c(c5)CN(C5CCC(=O)NC5=O)C6=O)CC4)CC3)cc2)ncc1Cl (stereo partly drawn) [UB-181084] | 0.1 to 1
CNC(=O)c1ccccc1Nc1nc(Nc2ccc(N3CCN(C(=O)NCCOCC(=O)COCCOCCC(=O)Nc4ccc5c(c4)CN(C4CCC(=O)NC4=O)C5=O)CC3)cc2)ncc1Cl (stereo not drawn) [UB-181086] | > 1
CNC(=O)c1ccccc1Nc1nc(Nc2ccc(N3CCN(C(=O)N[C@H]4CC[C@@H](NCCCOCCC#Cc5cccc6c5CN(C5CCC(=O)NC5=O)C6=O)CC4)CC3)cc2)ncc1Cl (stereo partly drawn) [UB-181087] | 0.1 to 1
CNC(=O)c1ccccc1Nc1nc(Nc2ccc(N3CCN(C(=O)NCCOCC(COCCOCCC(=O)Nc4cccc5c4CN(C4CCC(=O)NC4=O)C5=O)NC)CC3)cc2)ncc1Cl (stereo not drawn) [UB-181088] | > 1
CNC(=O)c1ccccc1Nc1nc(Nc2ccc(N3CCN(C(=O)NCCOCC(COCCOCCC(=O)Nc4ccc5c(c4)CN(C4CCC(=O)NC4=O)C5=O)NC)CC3)cc2)ncc1Cl (stereo not drawn) [UB-181090] | > 1
CNC(=O)c1ccccc1Nc1nc(Nc2ccc(N3CCN(C(=O)N[C@H]4CC[C@@H](NCCCOCC#Cc5cccc6c5CN(C5CCC(=O)NC5=O)C6=O)CC4)CC3)cc2)ncc1Cl (stereo partly drawn) [UB-181091] | > 1

system: MDA-MB-231 cells; assay: Cell proliferation experiment, MDA-MB-231; format: cell-based, human; details: Homo sapiens, MDA-MB-231, MDA-MB-231 cells; read-out: Inhibitory activity IC50 on MDA-MB-231
Procedure, shortened: (§1)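 Single-cell suspensions from log-phase cultures, passaged at least 2 generations, are seeded into 96-well plates and given compound in complete medium. Following 72 h, fluorescence with Alamar blue is recorded and fitted for IC50.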

SMILES | IC50 [µM]
O=C1CCC(N2Cc3cc(NC(=O)CCOCCOCCOCC(O)Cn4cc(-c5ccc(Nc6ncc7c(n6)-c6ccc(Cl)cc6C(c6c(F)cccc6F)=NC7)cc5)nn4)ccc3C2=O)C(=O)N1 (stereo not drawn) [UB-181075] | > 1
O=C1CCC(N2Cc3cc(NC(=O)CCOCCOCC(O)COCCn4cc(-c5ccc(Nc6ncc7c(n6)-c6ccc(Cl)cc6C(c6c(F)cccc6F)=NC7)cc5)nn4)ccc3C2=O)C(=O)N1 (stereo not drawn) [UB-181077] | > 1
CNC(=O)c1ccccc1Nc1nc(Nc2ccc(N3CCN(C(=O)NCCOCC(O)COCCOCCC(=O)Nc4cccc5c4CN(C4CCC(=O)NC4=O)C5=O)CC3)cc2)ncc1Cl (stereo not drawn) [UB-181079] | > 1
CNC(=O)c1ccccc1Nc1nc(Nc2ccc(N3CCN(C(=O)NCC(O)COCCOCCOCCC(=O)Nc4ccc5c(c4)CN(C4CCC(=O)NC4=O)C5=O)CC3)cc2)ncc1Cl (stereo not drawn) [UB-181081] | > 1
CNC(=O)c1ccccc1Nc1nc(Nc2ccc(N3CCN(C(=O)NCC(O)COCCOCCOCCC(=O)Nc4cccc5c4CN(C4CCC(=O)NC4=O)C5=O)CC3)cc2)ncc1Cl (stereo not drawn) [UB-181082] | > 1
CNC(=O)c1ccccc1Nc1nc(Nc2ccc(N3CCN(C(=O)NCCCOCC(=O)COCC#Cc4cccc5c4CN(C4CCC(=O)NC4=O)C5=O)CC3)cc2)ncc1Cl (stereo not drawn) [UB-181083] | > 1
CNC(=O)c1ccccc1Nc1nc(Nc2ccc(N3CCN(C(=O)N[C@H]4CC[C@@H](NCCCOCCC#Cc5ccc6c(c5)CN(C5CCC(=O)NC5=O)C6=O)CC4)CC3)cc2)ncc1Cl (stereo partly drawn) [UB-181084] | 0.1 to 1
CNC(=O)c1ccccc1Nc1nc(Nc2ccc(N3CCN(C(=O)NCCOCC(=O)COCCOCCC(=O)Nc4ccc5c(c4)CN(C4CCC(=O)NC4=O)C5=O)CC3)cc2)ncc1Cl (stereo not drawn) [UB-181086] | > 1
CNC(=O)c1ccccc1Nc1nc(Nc2ccc(N3CCN(C(=O)N[C@H]4CC[C@@H](NCCCOCCC#Cc5cccc6c5CN(C5CCC(=O)NC5=O)C6=O)CC4)CC3)cc2)ncc1Cl (stereo partly drawn) [UB-181087] | > 1
CNC(=O)c1ccccc1Nc1nc(Nc2ccc(N3CCN(C(=O)N[C@H]4CC[C@@H](NCCCOCC#Cc5cccc6c5CN(C5CCC(=O)NC5=O)C6=O)CC4)CC3)cc2)ncc1Cl (stereo partly drawn) [UB-181091] | 0.1 to 1

same assay, conditions: Homo sapiens, MDA-MB-231, read-out: Inhibitory activity IC50 on MDA-MB-231

SMILES | IC50 [µM]
CNC(=O)c1ccccc1Nc1nc(Nc2ccc(N3CCN(C(=O)NCCOCC(COCCOCCC(=O)Nc4cccc5c4CN(C4CCC(=O)NC4=O)C5=O)NC)CC3)cc2)ncc1Cl (stereo not drawn) [UB-181088] | > 1
CNC(=O)c1ccccc1Nc1nc(Nc2ccc(N3CCN(C(=O)NCCOCC(COCCOCCC(=O)Nc4ccc5c(c4)CN(C4CCC(=O)NC4=O)C5=O)NC)CC3)cc2)ncc1Cl (stereo not drawn) [UB-181090] | > 1

system: MV4;11 cells; assay: Cell proliferation experiment (Alamar blue, 72 h), MV4;11; format: cell-based, human; details: Homo sapiens, MV4-11, MV4;11 cells; read-out: Inhibitory activity IC50 on MV4;11
Procedure, shortened: as §1

SMILES | IC50 [µM]
O=C1CCC(N2Cc3cc(NC(=O)CCOCCOCCOCC(O)Cn4cc(-c5ccc(Nc6ncc7c(n6)-c6ccc(Cl)cc6C(c6c(F)cccc6F)=NC7)cc5)nn4)ccc3C2=O)C(=O)N1 (stereo not drawn) [UB-181075] | > 1
CNC(=O)c1ccccc1Nc1nc(Nc2ccc(N3CCN(C(=O)NCCOCC(O)COCCOCCC(=O)Nc4cccc5c4CN(C4CCC(=O)NC4=O)C5=O)CC3)cc2)ncc1Cl (stereo not drawn) [UB-181079] | < 0.01
CNC(=O)c1ccccc1Nc1nc(Nc2ccc(N3CCN(C(=O)NCC(O)COCCOCCOCCC(=O)Nc4ccc5c(c4)CN(C4CCC(=O)NC4=O)C5=O)CC3)cc2)ncc1Cl (stereo not drawn) [UB-181081] | 0.01 to 0.1
CNC(=O)c1ccccc1Nc1nc(Nc2ccc(N3CCN(C(=O)NCC(O)COCCOCCOCCC(=O)Nc4cccc5c4CN(C4CCC(=O)NC4=O)C5=O)CC3)cc2)ncc1Cl (stereo not drawn) [UB-181082] | 0.01 to 0.1
CNC(=O)c1ccccc1Nc1nc(Nc2ccc(N3CCN(C(=O)NCCCOCC(=O)COCC#Cc4cccc5c4CN(C4CCC(=O)NC4=O)C5=O)CC3)cc2)ncc1Cl (stereo not drawn) [UB-181083] | 0.01 to 0.1
CNC(=O)c1ccccc1Nc1nc(Nc2ccc(N3CCN(C(=O)N[C@H]4CC[C@@H](NCCCOCCC#Cc5ccc6c(c5)CN(C5CCC(=O)NC5=O)C6=O)CC4)CC3)cc2)ncc1Cl (stereo partly drawn) [UB-181084] | < 0.01
CNC(=O)c1ccccc1Nc1nc(Nc2ccc(N3CCN(C(=O)NCCOCC(=O)COCCOCCC(=O)Nc4ccc5c(c4)CN(C4CCC(=O)NC4=O)C5=O)CC3)cc2)ncc1Cl (stereo not drawn) [UB-181086] | 0.01 to 0.1
CNC(=O)c1ccccc1Nc1nc(Nc2ccc(N3CCN(C(=O)N[C@H]4CC[C@@H](NCCCOCCC#Cc5cccc6c5CN(C5CCC(=O)NC5=O)C6=O)CC4)CC3)cc2)ncc1Cl (stereo partly drawn) [UB-181087] | < 0.01
CNC(=O)c1ccccc1Nc1nc(Nc2ccc(N3CCN(C(=O)NCCOCC(COCCOCCC(=O)Nc4cccc5c4CN(C4CCC(=O)NC4=O)C5=O)NC)CC3)cc2)ncc1Cl (stereo not drawn) [UB-181088] | < 0.01
CNC(=O)c1ccccc1Nc1nc(Nc2ccc(N3CCN(C(=O)NCCOCC(COCCOCCC(=O)Nc4ccc5c(c4)CN(C4CCC(=O)NC4=O)C5=O)NC)CC3)cc2)ncc1Cl (stereo not drawn) [UB-181090] | 0.01 to 0.1
CNC(=O)c1ccccc1Nc1nc(Nc2ccc(N3CCN(C(=O)N[C@H]4CC[C@@H](NCCCOCC#Cc5cccc6c5CN(C5CCC(=O)NC5=O)C6=O)CC4)CC3)cc2)ncc1Cl (stereo partly drawn) [UB-181091] | < 0.01

same assay, conditions: MV4;11 cells; read-out: Inhibitory activity IC50 on MV4;11

SMILES | IC50 [µM]
O=C1CCC(N2Cc3cc(NC(=O)CCOCCOCC(O)COCCn4cc(-c5ccc(Nc6ncc7c(n6)-c6ccc(Cl)cc6C(c6c(F)cccc6F)=NC7)cc5)nn4)ccc3C2=O)C(=O)N1 (stereo not drawn) [UB-181077] | 0.1 to 1

system: NCIH82 cells; assay: Cell proliferation experiment, NCI-H82; format: cell-based, human; details: Homo sapiens, NCI-H82, NCI-H82 cells; read-out: Inhibitory activity IC50 on NCI-H82
Procedure, shortened: as §1

SMILES | IC50 [µM]
O=C1CCC(N2Cc3cc(NC(=O)CCOCCOCCOCC(O)Cn4cc(-c5ccc(Nc6ncc7c(n6)-c6ccc(Cl)cc6C(c6c(F)cccc6F)=NC7)cc5)nn4)ccc3C2=O)C(=O)N1 (stereo not drawn) [UB-181075] | 0.1 to 1
O=C1CCC(N2Cc3cc(NC(=O)CCOCCOCC(O)COCCn4cc(-c5ccc(Nc6ncc7c(n6)-c6ccc(Cl)cc6C(c6c(F)cccc6F)=NC7)cc5)nn4)ccc3C2=O)C(=O)N1 (stereo not drawn) [UB-181077] | > 1
CNC(=O)c1ccccc1Nc1nc(Nc2ccc(N3CCN(C(=O)NCCOCC(O)COCCOCCC(=O)Nc4cccc5c4CN(C4CCC(=O)NC4=O)C5=O)CC3)cc2)ncc1Cl (stereo not drawn) [UB-181079] | 0.1 to 1
CNC(=O)c1ccccc1Nc1nc(Nc2ccc(N3CCN(C(=O)NCC(O)COCCOCCOCCC(=O)Nc4ccc5c(c4)CN(C4CCC(=O)NC4=O)C5=O)CC3)cc2)ncc1Cl (stereo not drawn) [UB-181081] | > 1
CNC(=O)c1ccccc1Nc1nc(Nc2ccc(N3CCN(C(=O)NCC(O)COCCOCCOCCC(=O)Nc4cccc5c4CN(C4CCC(=O)NC4=O)C5=O)CC3)cc2)ncc1Cl (stereo not drawn) [UB-181082] | > 1
CNC(=O)c1ccccc1Nc1nc(Nc2ccc(N3CCN(C(=O)NCCCOCC(=O)COCC#Cc4cccc5c4CN(C4CCC(=O)NC4=O)C5=O)CC3)cc2)ncc1Cl (stereo not drawn) [UB-181083] | > 1
CNC(=O)c1ccccc1Nc1nc(Nc2ccc(N3CCN(C(=O)N[C@H]4CC[C@@H](NCCCOCCC#Cc5ccc6c(c5)CN(C5CCC(=O)NC5=O)C6=O)CC4)CC3)cc2)ncc1Cl (stereo partly drawn) [UB-181084] | 0.1 to 1
CNC(=O)c1ccccc1Nc1nc(Nc2ccc(N3CCN(C(=O)NCCOCC(=O)COCCOCCC(=O)Nc4ccc5c(c4)CN(C4CCC(=O)NC4=O)C5=O)CC3)cc2)ncc1Cl (stereo not drawn) [UB-181086] | 0.1 to 1
CNC(=O)c1ccccc1Nc1nc(Nc2ccc(N3CCN(C(=O)N[C@H]4CC[C@@H](NCCCOCCC#Cc5cccc6c5CN(C5CCC(=O)NC5=O)C6=O)CC4)CC3)cc2)ncc1Cl (stereo partly drawn) [UB-181087] | 0.1 to 1
CNC(=O)c1ccccc1Nc1nc(Nc2ccc(N3CCN(C(=O)NCCOCC(COCCOCCC(=O)Nc4cccc5c4CN(C4CCC(=O)NC4=O)C5=O)NC)CC3)cc2)ncc1Cl (stereo not drawn) [UB-181088] | > 1
CNC(=O)c1ccccc1Nc1nc(Nc2ccc(N3CCN(C(=O)NCCOCC(COCCOCCC(=O)Nc4ccc5c(c4)CN(C4CCC(=O)NC4=O)C5=O)NC)CC3)cc2)ncc1Cl (stereo not drawn) [UB-181090] | > 1
CNC(=O)c1ccccc1Nc1nc(Nc2ccc(N3CCN(C(=O)N[C@H]4CC[C@@H](NCCCOCC#Cc5cccc6c5CN(C5CCC(=O)NC5=O)C6=O)CC4)CC3)cc2)ncc1Cl (stereo partly drawn) [UB-181091] | 0.1 to 1
